In the assay the target is Matrix metalloproteinase-9 (MMP-9) (Homo sapiens, UniProt P14780). Briefly: fluorogenic peptide. In kind it is biochemical.

One may read the IC50 as the concentration at which inhibition is half-maximal. A high value points to weaker potency in that assay.

Matrix metalloproteinase-9 (MMP-9), sequence (P14780 107-707): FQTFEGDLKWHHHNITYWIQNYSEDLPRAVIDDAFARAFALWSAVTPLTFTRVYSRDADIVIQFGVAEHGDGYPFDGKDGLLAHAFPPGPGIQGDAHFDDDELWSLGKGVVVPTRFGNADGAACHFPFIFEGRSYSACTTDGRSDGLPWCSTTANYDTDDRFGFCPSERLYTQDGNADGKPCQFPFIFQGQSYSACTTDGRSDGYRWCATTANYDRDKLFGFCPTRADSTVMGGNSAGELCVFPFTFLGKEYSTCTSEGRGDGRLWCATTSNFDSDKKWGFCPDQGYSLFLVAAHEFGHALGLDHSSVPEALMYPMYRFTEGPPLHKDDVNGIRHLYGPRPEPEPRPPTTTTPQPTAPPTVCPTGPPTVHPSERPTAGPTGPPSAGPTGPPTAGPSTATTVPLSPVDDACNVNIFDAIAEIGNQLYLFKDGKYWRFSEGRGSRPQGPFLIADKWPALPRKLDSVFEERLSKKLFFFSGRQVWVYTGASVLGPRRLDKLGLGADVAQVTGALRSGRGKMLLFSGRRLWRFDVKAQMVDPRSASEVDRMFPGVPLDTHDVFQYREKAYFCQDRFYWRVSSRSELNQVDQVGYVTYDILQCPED

`CC(C)(NS(=O)(=O)c1ccc(Oc2ccc(F)cc2)cc1)C(=O)NO` [CP471474] registered a 50% inhibitory concentration (IC50) of 11.9 ± 1 nM.

Source of the values: paper PMC3482625 (Analytical chemistry, 2011).
